Several values for one entry are separate records, joined by “and”; a condition that tells them apart may be missing. Identical values can stand only once.
Experiments:
[1] = test system: dogs subjected to partial medial meniscectomy; test: Dog partial medial meniscectomy study, collagen damage width; type: in vivo
Excerpt: Collagen damage across the medial tibial plateau (most severely affected section) was quantified by measuring the total width of the following:
Any damage (fibrillation ranging from superficial to full thickness loss)
Severe damage (total or near total loss of collagen to tidemark, >90% thickness)
Marked damage (extends through 61-90% of the cartilage thickness)
Moderate damage (extends thru 31-60% of the cartilage thickness)
Mild damage (extends through 11-30% of the cartilage thickness)
Minimal damage (very superficial, affecting upper 10% only)
Single clefts were arbitrarily given a measure of 100 µm and the number of clefts was multiplied by 100 if several are present.

[2] = test system: bone resorption biomarker HP-1; test: Urinary HP-1 (bone resorption biomarker) in ACLT rabbits; type: in vivo, rabbit
Procedure: (§1) Starting 1 week after sham operation or ACLT, animals were dosed daily for 7 weeks by oral gavage with either MIV-711 (synthesized by Medivir and given as a suspension in 1% Methocel A4C in water) or vehicle (1% Methocel A4C in water) at a dose volume of 4 mL/kg. The four treatment groups (n = 7 in each group) were: (1) sham + vehicle; (2) ACLT + vehicle; (3) ACLT + MIV-711, 30 µmol/kg (low dose) and (4) ACLT + MIV-711, 100 µmol/kg (high dose).
(§2) Urine was collected in the morning from all animals for biomarker measurements before surgery, before dosing on Day 1, Day 10 and during Week 4 and Week 7. The urine was stored frozen (− 70 to − 80 °C) until analysis.
(§3) In rabbits, conventional CTX-I assays to assess bone resorption cannot be used due to species differences. Instead, urinary helical peptide (HP-1) concentrations were measured in rabbits using the MicroVue Helical Peptide kit (Ref: 8022) from Quidel (San Diego, CA) according to the instructions supplied by the manufacturer. In dogs, urinary levels of C-terminal telopeptide of collagen type I (CTX-I) were measured using a commercially available kit (Urine BETA CrossLaps ELISA, Ref: AC-05F1, IDS Nordic Bioscience Diagnostics A/S). In rabbits and dogs, urinary concentrations of C-terminal telopeptide of collagen type II (CTX-II) were measured using the Urine CartiLaps EIA kit (Ref: AC-10F1) from Immunodiagnostics Systems (IDS, Herlev, Denmark) according to the instructions supplied by the manufacturer. In dogs, CTX-II levels were also measured in synovial fluid. Before ELISA analysis, 95 µL of synovial fluid was mixed with 5 µL of hyaluronidase (100 U/mL, Sigma, H-3884). The mixture was incubated overnight at 35 °C. The mixture was then used to measure CTX-II levels (Serum Pre-Clinical CartiLaps ELISA, Ref: AC-08F1, IDS Nordic Bioscience Diagnostics A/S). The creatinine levels in urine were determined at Swedish University of Agricultural Sciences (Uppsala, Sweden), using the enzymatic assay (Cat No. 8L24-01) on the Abbott system Architect c4000.

[3] = test system: dogs subjected to partial medial meniscectomy; test: Dog study, principal components analysis of exposure, biomarker, macro- and microscopic data; type: in vivo; conditions: 30 µmol/kg, p < 0.001
Procedure: Biomarker data was evaluated by two-way ANOVA, followed by Bonferroni’s or Dunnett’s correction for multiple comparisons when appropriate, using GraphPad Prism, version 6 (San Diego, CA). Synovial MIV-711 exposure data was evaluated by Student’s paired t-test. Data from µCT in rabbits was evaluated by one-way ANOVA followed by Dunnett’s correction for multiple comparisons (GraphPad). Macroscopic parameters in dogs were compared using Student’s unpaired t-test. The exposure data, biomarker data and macro- and microscopic data from the dog study were also imported into R (R Foundation for Statistical Computing Version 2.15.0, Vienna, Austria). A principal components analysis was performed using procedure prcomp. Derived scores were subjected to t-tests in Microsoft Excel 2007. Data are expressed as mean ± SEM, n = number of animals. A p-value < 0.05 was considered statistically significant.

[4] = test system: cartilage degradation biomarker CTX-II; test: Urinary CTX-II (cartilage degradation biomarker) in ACLT rabbits; type: in vivo, rabbit
Procedure: as §1, §2, §3

[5] = Plasma concentrations of MIV-711 in ACLT rabbits (LC-MS/MS); type: in vivo; conditions: rabbit plasma
Procedure: as §1
Twelve blood samples of 1 mL each were collected from each animal for determination of MIV-711 concentrations in a staggered manner to cover as many time points as possible. The blood samples were collected on Day 1, Day 10 and during Week 4 and Week 7. The samples were collected in EDTA coated tubes and kept on ice. The plasma was separated by centrifugation (2000g for 3–5 min at 4 °C) and then frozen and kept at − 70 °C until analysis.
To measure MIV-711 concentrations, 10–50 µL of plasma or synovial fluid was mixed with 30–150 µL of acetonitrile, samples were centrifuged (10 min, 20,000g, 7 °C) and 5 µL of the supernatant was injected onto the LC–MS/MS system. The lower limit of quantification (LLOQ) was 1 nmol/L.

[6] = individual animals of MIV-711 group
[7] = ACLT rabbits, over doses 30 and 100 µmol/kg and time points
[8] = after 7 weeks, 30 µmol/kg (p > 0.05)
[9] = after 10 days of dosing, 30 µmol/kg
[10] = after 10 days of dosing, 100 µmol/kg
[11] = single oral administration 30 µmol/kg
[12] = single oral administration 100 µmol/kg

C#C[C@@H]1CN(C(=O)[C@H](CC(C)C)NC(=O)c2ccc(-c3nc(N4CCN(C)CC4)sc3F)cc2)[C@@H]2C(=O)CO[C@H]12 [MIV-711]
collagen degeneration, percentage of total width: Mild ([1]; group Mean): 17%
collagen degeneration, percentage of total width: Mild+ Minimal ([1]; group Mean): 28%
collagen degeneration, percentage of total width: Minimal ([1]; group Mean): 11%
collagen degeneration, percentage of total width: Moderate+ Mild+ Minimal ([1]; group Mean): 30%
collagen degeneration, percentage of total width: Normal ([1]; group Mean): 70%
collagen degeneration, percentage of total width: Severe ([1]; group Mean): 0%
collagen degeneration, percentage of total width: Severe+ Marked ([1]; group Mean): 0%
collagen degeneration, percentage of total width: Severe+ Marked+ Moderate ([1]; group Mean): 2%
collagen degeneration, percentage of total width: Severe+ Marked+ Moderate+ Mild ([1]; group Mean): 19%
collagen degeneration, percentage of total width: Total ([1]; group Mean): 30%
collagen degeneration, percentage of total width: Mild [1, 6]: 10% and 26% and 11% and 4% and 31% and 27% and 13% and 25% and 30% and 14% and 8% and 16%
collagen degeneration, percentage of total width: Mild+ Minimal [1, 6]: 18% and 31% and 23% and 14% and 35% and 39% and 20% and 24% and 34% and 58% and 25% and 16% and 28% and 30%
collagen degeneration, percentage of total width: Minimal [1, 6]: 9% and 5% and 12% and 10% and 4% and 7% and 8% and 27% and 2% and 20% and 14%
collagen degeneration, percentage of total width: Moderate+ Mild+ Minimal [1, 6]: 19% and 31% and 23% and 24% and 35% and 39% and 27% and 34% and 58% and 29% and 18% and 28% and 26% and 30%
collagen degeneration, percentage of total width: Normal [1, 6]: 81% and 69% and 77% and 76% and 65% and 61% and 73% and 62% and 42% and 71% and 82% and 72% and 74% and 70%
collagen degeneration, percentage of total width: Severe [1, 6]: 0%
collagen degeneration, percentage of total width: Severe+ Marked [1, 6]: 0%
collagen degeneration, percentage of total width: Severe+ Marked+ Moderate [1, 6]: 1% and 0% and 10% and 7% and 4% and 2% and 3%
collagen degeneration, percentage of total width: Severe+ Marked+ Moderate+ Mild [1, 6]: 11% and 26% and 14% and 31% and 27% and 20% and 13% and 25% and 30% and 17% and 16% and 8% and 19%
collagen degeneration, percentage of total width: Total [1, 6]: 19% and 31% and 23% and 24% and 35% and 39% and 27% and 38% and 58% and 29% and 18% and 28% and 26% and 30%
% inhibition, collagen degeneration width: Mild ([1]; versus Vehicle): -2%
% inhibition, collagen degeneration width: Mild+ Minimal ([1]; versus Vehicle): 12%
% inhibition, collagen degeneration width: Minimal ([1]; versus Vehicle): 28%
% inhibition, collagen degeneration width: Moderate+ Mild+ Minimal ([1]; versus Vehicle): 12%
% inhibition, collagen degeneration width: Normal ([1]; versus Vehicle): -6%
% inhibition, collagen degeneration width: Severe+ Marked+ Moderate ([1]; versus Vehicle): 21%
% inhibition, collagen degeneration width: Severe+ Marked+ Moderate+ Mild ([1]; versus Vehicle): 1%
% inhibition, collagen degeneration width: Total ([1]; versus Vehicle): 12%
HP-1 levels decreased by up to, vs ACLT vehicle controls [2, 7]: up to 72%
urinary HP-1 levels reduced by, vs ACLT rabbits treated with vehicle ([2]; after 4 weeks, 30 µmol/kg): 43%
urinary HP-1 levels reduced by, vs ACLT rabbits treated with vehicle ([2]; after 4 weeks, 100 µmol/kg): 68%
urinary HP-1 levels reduced by, vs ACLT rabbits treated with vehicle [2, 8]: 25%
urinary HP-1 levels reduced by, vs ACLT rabbits treated with vehicle ([2]; after 7 weeks, 100 µmol/kg): 51%
urinary HP-1 levels reduced by, vs ACLT rabbits treated with vehicle [2, 9]: 45%
urinary HP-1 levels reduced by, vs ACLT rabbits treated with vehicle [2, 10]: 72%
principal component Score 2 (mainly biomarker data), vehicle vs MIV-711-treated groups [3]: significantly different
CTX-II levels decreased by up to, vs ACLT vehicle controls [4, 7]: up to 74%
urinary CTX-II levels reduced by, vs ACLT rabbits treated with vehicle ([4]; after 4 weeks, 30 µmol/kg (p > 0.05)): 38%
urinary CTX-II levels reduced by, vs ACLT rabbits treated with vehicle ([4]; after 4 weeks, 100 µmol/kg): 49%
urinary CTX-II levels reduced by, vs ACLT rabbits treated with vehicle [4, 8]: 14%
urinary CTX-II levels reduced by, vs ACLT rabbits treated with vehicle ([4]; after 7 weeks, 100 µmol/kg): 52%
urinary CTX-II levels reduced by, vs ACLT rabbits treated with vehicle [4, 9]: 53%
urinary CTX-II levels reduced by, vs ACLT rabbits treated with vehicle [4, 10]: 74%
AUC0–24 h [5, 11]: 0.78 µmol·h/L
Cmax [5, 11]: 250 nM
AUC0–24 h [5, 12]: 7.0 µmol·h/L
Cmax [5, 12]: 1800 nM
